Values quoted from earlier work, collected in US5817671A, “5-HT1F agonists” (Eli Lilly and Company, priority 1997, dated 1998).

Assays:
[1] = tested on: exploratory behavior of arthritic rats; details: arthritic animals; Larsen and Arnt (1985)
[2] = tested on: neurogenic inflammation, peptide extravasation; details: Moskowitz, Neurology 43(suppl. 3), S16-S20 (1993)
[3] = in vivo
[4] = in vivo; remark: listed apart in the source
[5] = treatment of migraine
5-HT1F receptor = target: T1, 5-HT1F receptor (Homo sapiens, UniProt P30939); details: reported by Weinshank et al., WO93/14201
T1 sequence (P30939 1-366): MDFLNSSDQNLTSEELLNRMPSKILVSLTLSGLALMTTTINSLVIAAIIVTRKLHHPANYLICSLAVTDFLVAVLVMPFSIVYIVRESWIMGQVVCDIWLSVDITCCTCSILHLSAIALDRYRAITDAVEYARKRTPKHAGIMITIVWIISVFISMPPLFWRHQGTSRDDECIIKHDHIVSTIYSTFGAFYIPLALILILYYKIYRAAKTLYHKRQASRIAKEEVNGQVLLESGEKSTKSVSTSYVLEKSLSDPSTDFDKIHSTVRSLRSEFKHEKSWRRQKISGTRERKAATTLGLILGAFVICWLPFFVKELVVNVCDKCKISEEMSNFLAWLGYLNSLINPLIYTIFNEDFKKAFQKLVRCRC

For CN(C)CCCC1(c2ccc(F)cc2)OCc2cc(C#N)ccc21 (stereo not drawn) [citalopram], the “effect on exploratory behavior (in words)” value [1] is listed as “improve exploratory behavior”.

For CNS(=O)(=O)Cc1ccc2[nH]cc(CCN(C)C)c2c1 [Sumatriptan], the “block of neurogenic inflammation (in words)” value [2] is given as “neurogenic inflammation is blocked”, the “bioavailability (in words)” value [3] is given as “low bioavailability” and the “duration of action (in words)” value [4] is given as “relatively short duration of action”. For the same compound, the “undesirable side effects (in words)” value [5] was “undesirable side effects, particularly vasoconstriction”.

For NCCc1c[nH]c2ccc(O)cc12 [serotonin], the “inhibition of forskolin stimulated cAMP production (in words)” value (5-HT1F receptor) is given as “inhibit forskolin stimulated cAMP production”.
